Patent publication US20220409548A1, “AMORPHOUS SOLID DISPERSION OF PYRAZOLE-AMIDE COMPOUND” (JAPAN TOBACCO INC., priority 2019, published 2022)

What was measured:
[1] = Precipitation test in acidic media (pH 1.2); assay type: physicochemical; conditions: ethanol solution 100 mg/mL into JP 1st fluid pH 1.2, 450 mL; addition of copolyvidone, methylcellulose or hypromellose (0.01 g) vs HPMCAS, polyvinyl alcohol or no polymer; FIG. 3
Protocol: The dissolution test was performed using a dissolution tester (trade name: NTR-VS6P, manufactured by Toyama Sangyo Co., Ltd.) that conforms to the Japanese Pharmacopoeia Dissolution Test Method 2 (Paddle Method), at paddle rotating speed 75 rpm, test media amount 450 mL. An amount equivalent to 100 mg of the compound of the formula [I] was added to the test media, and the dissolved amount of the compound of the formula [I] was measured at each sampling point with a spectrophotometer (UV-1600, manufactured by Shimadzu Corporation).
The precipitation behavior of the compound of the formula [I], dissolved in ethanol (concentration: 100 mg/mL), in the following 6 types of test medium was evaluated by the same test method as in Experimental Example 1. […]

[2] = system: pyruvate dehydrogenase kinase (PDHK); conditions: described in patent document 1 (WO 2014/142290); cited from earlier work

In the case of `CC(C)(O)CCOc1cc(-c2cnn(C(C)(C)C(N)=O)c2)c2c(c1)[C@@](O)(C(F)(F)F)c1ccccc1-2` [compound of the formula [I], 2-{4-[(9R)-9-hydroxy-2-(3-hydroxy-3-methylbutyloxy)-9-(trifluoromethyl)-9H-fluoren-4-yl]-1H-pyrazol-1-yl}-2-methylpropanamide], the “precipitation behavior in pH 1.2 test media” value [1] is given as “significantly suppressed the precipitation” and the “pyruvate dehydrogenase kinase (PDHK) inhibitory activity” value [2] is given as “have a pyruvate dehydrogenase kinase (PDHK) inhibitory activity”.
